Structures are written as SMILES.

Chain of human PRMT5 complex enzyme (O14744 whole entry): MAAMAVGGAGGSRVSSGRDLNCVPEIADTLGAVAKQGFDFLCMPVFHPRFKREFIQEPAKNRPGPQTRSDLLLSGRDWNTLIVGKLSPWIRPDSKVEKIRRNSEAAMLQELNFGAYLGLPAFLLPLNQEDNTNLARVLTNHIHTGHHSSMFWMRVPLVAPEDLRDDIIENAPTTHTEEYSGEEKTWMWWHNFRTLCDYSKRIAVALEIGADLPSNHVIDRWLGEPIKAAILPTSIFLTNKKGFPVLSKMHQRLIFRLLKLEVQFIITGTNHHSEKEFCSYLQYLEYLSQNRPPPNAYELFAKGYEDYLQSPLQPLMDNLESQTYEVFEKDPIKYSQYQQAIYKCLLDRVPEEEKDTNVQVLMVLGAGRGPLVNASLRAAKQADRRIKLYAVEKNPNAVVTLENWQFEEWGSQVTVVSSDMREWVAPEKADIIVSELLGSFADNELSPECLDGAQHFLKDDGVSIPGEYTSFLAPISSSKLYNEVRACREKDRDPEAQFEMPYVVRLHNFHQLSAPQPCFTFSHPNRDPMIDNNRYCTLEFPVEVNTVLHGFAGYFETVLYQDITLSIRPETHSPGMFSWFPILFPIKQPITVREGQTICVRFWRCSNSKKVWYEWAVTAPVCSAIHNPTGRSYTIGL
Chain of human PRMT5 complex enzyme (Q9BQA1 whole entry partner): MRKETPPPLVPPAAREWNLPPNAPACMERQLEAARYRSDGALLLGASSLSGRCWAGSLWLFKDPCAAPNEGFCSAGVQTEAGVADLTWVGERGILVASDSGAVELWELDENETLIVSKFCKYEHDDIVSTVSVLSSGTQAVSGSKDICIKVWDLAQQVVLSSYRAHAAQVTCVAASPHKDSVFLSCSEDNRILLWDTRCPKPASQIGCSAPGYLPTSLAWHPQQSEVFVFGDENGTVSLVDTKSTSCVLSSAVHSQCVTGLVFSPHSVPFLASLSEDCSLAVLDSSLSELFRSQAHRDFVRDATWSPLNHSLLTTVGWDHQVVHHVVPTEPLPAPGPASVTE

The first series concerns the target human PRMT5 complex enzyme (Homo sapiens, UniProt O14744). The experiment in a line: PRMT5 inhibition study ([3H]SAM / Histone H4 methylation, filter scintillation counting). Type of series: biochemical. As to conditions: 30 μM test compound; 120 min at 22° C.; 600 nM [3H]SAM, 250 nM Histone H4 full length; percent inhibition of the control enzyme activity. Here is the method:
The test compound, reference compound, or water (control) were incubated for 120 min at 22° C. with about 200 ng human PRMT5 complex enzyme, 600 nM [^3H]SAM and 250 nM Histone H4 full length in a buffer containing 45 mM Tris-HCl (pH 9), 45 mM NaCl, 4.5 mM MgCl2 and 3.6 mM DTT (Dithiothreitol).
For control basal measurements, the enzyme was omitted from the reaction mixture. Following incubation, the reaction was stopped by adding 33 mM citric acid and the samples were filtered rapidly in vacuo through glass fiber filters (GF/B, Packard) presoaked with 33 mM citric acid and rinsed several times with ice-cold 33 mM citric acid using a 96-sample cell harvester (Unifilter, Packard). The filters were dried then counted for radioactivity in a scintillation counter (Topcount, Packard) using a scintillation cocktail (Microscint 0, Packard).
The results were expressed as a percent inhibition of the control enzyme activity.
With `CCCN[C@H]1C[C@]2(C[C@@H](n3cnc4c(N)ncnc43)[C@H](O)[C@@H]2O)C1`, the inhibition at 30 µM is 69.8%.
With `Nc1ncnc2c1ccn2[C@@H]1C[C@]2(C[C@@H](Cc3cccnc3)C2)[C@@H](O)[C@H]1O`, the inhibition at 30 µM was determined as 99.8%.
Consider `Nc1ncnc2c1ncn2[C@@H]1O[C@@]2(C[C@H]2O)C(O)C1O` (stereo partly drawn), for which the inhibition at 30 µM was 72%.
Still for that read-out and setting: in the case of `Nc1ncnc2c1ncn2[C@@H]1O[C@]2(C[C@H]2CO)C(O)C1O` (stereo partly drawn) it was 31%; in that of `Nc1ncnc2c1ncn2[C@@H]1O[C@@]2(C[C@H]2CO)C(O)C1O` (stereo partly drawn) [drawing 332], 36.4%.
On the same count and under the same terms, in the case of `Nc1ncnc2c1ncn2[C@@H]1O[C@]2(C[C@H](O)C2)[C@@H](O)[C@H]1O` it was 37.7%; in that of `Nc1ncnc2c1ncn2[C@@H]1O[C@@]2(CC[C@H]2O)C(O)C1O` (stereo partly drawn), 98%.
As to `NC[C@H]1C[C@]12O[C@@H](n1cnc3c(N)ncnc31)C(O)C2O` (stereo partly drawn), the inhibition at 30 µM amounted to 79%.
Still for that read-out and setting: in the case of `Nc1ncnc2c1ncn2[C@@H]1O[C@]2(C[C@@H]2CO)C(O)C1O` (stereo partly drawn) it was 84%; in that of `Nc1ncnc2c1ncn2[C@@H]1O[C@]2(C[C@@H](O)C2)[C@@H](O)[C@H]1O`, 70.3%; in that of `CCCN[C@H]1C[C@]2(C1)O[C@@H](n1cnc3c(N)ncnc31)[C@H](O)[C@@H]2O`, 33.8%.
Same read-out and setting: in the case of `Nc1ncnc2c1ncn2[C@@H]1O[C@@]2(CC[C@@H]2O)C(O)C1O` (stereo partly drawn) it was 42%; in that of `Nc1ncnc2c1ccn2[C@@H]1C[C@]2(C[C@H](Cc3cccnc3)C2)[C@@H](O)[C@H]1O`, 100%.
On the same count and under the same terms, in the case of `CCCN(C)C[C@H]1C[C@]12O[C@@H](n1cnc3c(N)ncnc31)C(O)C2O` (stereo partly drawn) it was 16%.
Turning to `Nc1ncnc2c1ccn2[C@@H]1C[C@]2(C[C@@H](Cc3ccn4ccnc4c3)C2)[C@@H](O)[C@H]1O`, the inhibition at 30 µM was determined as 102%.
Consider `Nc1ncnc2c1ccn2[C@@H]1O[C@]2(C[C@@H](N)C2)[C@@H](O)[C@H]1O`, for which the inhibition at 30 µM came to 46.3%.
As to `Nc1ncnc2c1ncn2[C@@H]1O[C@@]2(C[C@H]2CO)C(O)C1O` (stereo partly drawn) [drawing 333], the “% PRMT5 inhibition at 30 μM” value is listed as 55.9%.
With `Nc1ncnc2c1ncn2[C@@H]1O[C@@]2(C[C@@H]2CO)C(O)C1O` (stereo partly drawn), the inhibition at 30 µM was determined as 29%.
As to `CCCNC[C@H]1C[C@]12O[C@@H](n1cnc3c(N)ncnc31)C(O)C2O` (stereo partly drawn), the inhibition at 30 µM is 39%.

Test system in another series: not given
Test: not given
Settings: not given
`CC1(C)O[C@H]2OC3(CC(=O)C3)[C@@H](OCc3ccc4ccccc4c3)[C@H]2O1` [Compound 66.4] had a melting point of 101.79 °C.
Same read-out and setting: in the case of `C=C1O[C@@H]2OC(C)(C)O[C@@H]2[C@@H]1OCc1ccc2ccccc2c1` [Compound 66.2] it was 102.01 °C.

Source of the values: patent publication US20220275018A1, “NOVEL SPIROBICYCLIC INTERMEDIATES” (Janssen Pharmaceutica NV, priority 2019, published 2022).
